Test results: ChEMBL document CHEMBL3758124, “Synthesis and biological evaluation of new securinine analogues as potential anticancer agents” (Eur J Med Chem, 2016)
Values belong to the compound of their own block, whether it stands above or below them.

Legend:
[1] = Cytotoxicity against human HCT116 cells assessed as growth inhibition at 10 uM after 72 hrs by ATPlite assay relative to control; assay type: functional; settings: HCT-116, 72 h, read-out: GI
[2] = Cytotoxicity against human HCT116 cells assessed as growth inhibition at 20 uM after 72 hrs by ATPlite assay relative to control; assay type: functional; settings: HCT-116, 72 h, read-out: GI
[3] = Cytotoxicity against human HCT116 cells assessed as growth inhibition at 1 uM after 72 hrs by ATPlite assay relative to control; assay type: functional; settings: HCT-116, 72 h, read-out: GI
[4] = Cytotoxicity against human HL60 cells assessed as growth inhibition after 72 hrs by ATPlite assay; assay type: functional, cell-based; settings: HL-60, 72 h
A549 [5] = assay: Cytotoxicity against human A549 cells assessed as growth inhibition after 72 hrs by ATPlite assay; assay type: functional, cell-based; settings: A549, 72 h
[6] = Cytotoxicity against human HCT116 cells assessed as growth inhibition after 72 hrs by ATPlite assay; assay type: functional, cell-based; settings: HCT-116, 72 h
A-375 = assay: Cytotoxicity against human A375 cells assessed as growth inhibition after 72 hrs by ATPlite assay; assay type: functional, cell-based; settings: A-375, 72 h
Plasma [7] = assay: Stability in rat plasma at 5 uM after 120 mins by LC-MS analysis; assay type: ADME, cell-free; settings: 2 h
Plasma [8] = assay: Stability in human plasma at 5 uM after 120 mins by LC-MS analysis; assay type: ADME, cell-free; settings: 2 h
Plasma [9] = assay: Stability in mouse plasma at 5 uM after 120 mins by LC-MS analysis; assay type: ADME, cell-free; settings: 2 h
A549 [10] = assay: Cytotoxicity against human A549 cells after 72 hrs by Coulter counter analysis; assay type: functional, cell-based; settings: A549, 72 h
MCF7 = assay: Cytotoxicity against human MCF7 cells assessed as growth inhibition by CCK8 assay; assay type: functional, cell-based

Structure (SMILES): COc1ccc(C2=CC3=CC(=O)O[C@@]34C[C@@H]2N2CCCC[C@@H]24)cc1
inhibition of growth at 10 µM [1]: 9.4% | inhibition of growth at 20 µM [2]: 24.8% | inhibition of growth at 1 µM [3]: 11.7%

Structure (SMILES): COc1cc([C@@H]2c3cc4c(cc3[C@@H](O[C@@H]3O[C@@H]5CO[C@@H](C)O[C@H]5[C@H](O)[C@H]3O)[C@H]3COC(=O)[C@H]23)OCO4)cc(OC)c1O [ETOPOSIDE]
IC50 [4]: 860 nM | IC50 (A549 [5]): 590 nM | IC50 [6]: > 10000 nM | IC50 (A-375): 240 nM

Structure (SMILES): CC(=O)c1cccc(C2=CC3=CC(=O)O[C@@]34C[C@@H]2N2CCCC[C@@H]24)c1
inhibition of growth at 10 µM [1]: 35.3% | inhibition of growth at 20 µM [2]: 65% | inhibition of growth at 1 µM [3]: 3.6%

Structure (SMILES): COC(=O)c1cccc(C2=CC3=CC(=O)O[C@@]34C[C@@H]2N2CCCC[C@@H]24)c1
inhibition of growth at 10 µM [1]: 60.2% | inhibition of growth at 20 µM [2]: 82.8% | inhibition of growth at 1 µM [3]: 4%

Structure (SMILES): O=C1C=C2C=C(c3ccc4ccccc4c3)[C@@H]3C[C@@]2(O1)[C@H]1CCCCN31
inhibition of growth at 10 µM [1]: 30.9% | inhibition of growth at 20 µM [2]: 51.1% | inhibition of growth at 1 µM [3]: 10.8%

Structure (SMILES): CN(C)c1ccc(C2=CC3=CC(=O)O[C@@]34C[C@@H]2N2CCCC[C@@H]24)cc1
inhibition of growth at 10 µM [1]: 21.5% | inhibition of growth at 20 µM [2]: 47.6% | inhibition of growth at 1 µM [3]: 3.7%

Structure (SMILES): CN(C)c1cccc(C2=CC3=CC(=O)O[C@@]34C[C@@H]2N2CCCC[C@@H]24)c1
inhibition of growth at 10 µM [1]: 52.7% | inhibition of growth at 20 µM [2]: 75.7% | inhibition of growth at 1 µM [3]: 10.2%

Structure (SMILES): O=C1C=C2C=C(c3ccc4c(c3)Cc3ccccc3-4)[C@@H]3C[C@@]2(O1)[C@H]1CCCCN31
inhibition of growth at 10 µM [1]: 53.6% | inhibition of growth at 20 µM [2]: 75.1% | inhibition of growth at 1 µM [3]: 20.9%

Structure (SMILES): CC(=O)c1ccc(C2=CC3=CC(=O)O[C@@]34C[C@@H]2N2CCCC[C@@H]24)cc1
inhibition of growth at 10 µM [1]: 11.7% | inhibition of growth at 20 µM [2]: 27.3% | inhibition of growth at 1 µM [3]: 2.4%

Stability (Plasma [7]): Stable | Stability (Plasma [8]): Stable | Stability (Plasma [9]): Stable
Structure (SMILES): COc1cccc(C2=CC3=CC(=O)O[C@@]34C[C@@H]2N2CCCC[C@@H]24)c1
inhibition of growth at 10 µM [1]: 92.7% | IC50 [4]: 140 nM | inhibition of growth at 20 µM [2]: 92.8% | inhibition of growth at 1 µM [3]: 76.3% | IC50 (A549 [5]): 120 nM | IC50 [6]: 260 nM | IC50 (A-375): 80 nM

Structure (SMILES): O=C1C=C2C=C(c3ccc(Cl)c(Cl)c3)[C@@H]3C[C@@]2(O1)[C@H]1CCCCN31
inhibition of growth at 10 µM [1]: 61% | inhibition of growth at 20 µM [2]: 80.5% | inhibition of growth at 1 µM [3]: 12.3%

Structure (SMILES): O=C1C=C2C=C(c3ccc4c(c3)OCO4)[C@@H]3C[C@@]2(O1)[C@H]1CCCCN31
inhibition of growth at 10 µM [1]: 86.9% | inhibition of growth at 20 µM [2]: 90% | inhibition of growth at 1 µM [3]: -1.7%

Structure (SMILES): O=C1C=C2C=C(c3cccc(C(F)(F)F)c3)[C@@H]3C[C@@]2(O1)[C@H]1CCCCN31
inhibition of growth at 10 µM [1]: 81.9% | inhibition of growth at 20 µM [2]: 83.1% | inhibition of growth at 1 µM [3]: 21%

Structure (SMILES): O=C1C=C2C=C(c3cccc(F)c3)[C@@H]3C[C@@]2(O1)[C@H]1CCCCN31
inhibition of growth at 10 µM [1]: 80.3% | inhibition of growth at 20 µM [2]: 84.1% | inhibition of growth at 1 µM [3]: 32.1%

Structure (SMILES): O=C1C=C2C=C(c3cccc(Cl)c3)[C@@H]3C[C@@]2(O1)[C@H]1CCCCN31
inhibition of growth at 10 µM [1]: 93.4% | IC50 [4]: 140 nM | inhibition of growth at 20 µM [2]: 93% | inhibition of growth at 1 µM [3]: 76.6% | IC50 (A549 [5]): 110 nM | IC50 [6]: 230 nM | IC50 (A-375): 80 nM

Structure (SMILES): O=C1C=C2C=C(c3ccc(F)cc3)[C@@H]3C[C@@]2(O1)[C@H]1CCCCN31
inhibition of growth at 10 µM [1]: 30.7% | inhibition of growth at 20 µM [2]: 52.5% | inhibition of growth at 1 µM [3]: -2.6%

Structure (SMILES): COC(=O)c1ccc(C2=CC3=CC(=O)O[C@@]34C[C@@H]2N2CCCC[C@@H]24)cc1
inhibition of growth at 10 µM [1]: 8.3% | inhibition of growth at 20 µM [2]: 24.4% | inhibition of growth at 1 µM [3]: 7.2%

Structure (SMILES): O=C1C=C2C=C[C@@H]3C[C@@]2(O1)[C@H]1CCCCN31 [SECURININE]
inhibition of growth at 10 µM [1]: 50.6% | IC50 [4]: > 10000 nM | inhibition of growth at 20 µM [2]: 90.7% | Stability (Plasma [7]): Stable | IC50 (A549 [10]): 25000 nM | Stability (Plasma [8]): Stable | inhibition of growth at 1 µM [3]: 7.6% | IC50 (A549 [5]): > 10000 nM | IC50 (MCF7): 25000 nM | IC50 [6]: > 10000 nM | Stability (Plasma [9]): Stable | IC50 (A-375): 6100 nM

Structure (SMILES): Cc1ccc(C2=CC3=CC(=O)O[C@@]34C[C@@H]2N2CCCC[C@@H]24)cc1
inhibition of growth at 10 µM [1]: 73% | inhibition of growth at 20 µM [2]: 82.9% | inhibition of growth at 1 µM [3]: 3.4%

Structure (SMILES): Cc1cccc(C2=CC3=CC(=O)O[C@@]34C[C@@H]2N2CCCC[C@@H]24)c1
inhibition of growth at 10 µM [1]: 93.3% | IC50 [4]: 130 nM | inhibition of growth at 20 µM [2]: 92.5% | inhibition of growth at 1 µM [3]: 75.5% | IC50 (A549 [5]): 140 nM | IC50 [6]: 280 nM | IC50 (A-375): 70 nM

Structure (SMILES): O=C1C=C2C=C(c3ccccc3)[C@@H]3C[C@@]2(O1)[C@H]1CCCCN31
inhibition of growth at 10 µM [1]: 86.7% | inhibition of growth at 20 µM [2]: 87.4% | inhibition of growth at 1 µM [3]: 6.8%
